How the values were obtained:
corn = assay: Test C pre-/postemergence herbicide test; format: in vivo, Zea mays; conditions: preemergence
Procedure, shortened: (§1)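 Greenhouse-grown plants were evaluated visually 12 to 14 days after treatment, with 100 meaning complete control and 0 no effect. Application was preemergence, or postemergence at 2 to 18 cm.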

large crabgrass = assay: Test C pre-/postemergence herbicide test; format: in vivo, Digitaria sanguinalis; conditions: preemergence
Procedure, shortened: as §1

woolly cupgrass = assay: Test C pre-/postemergence herbicide test; format: in vivo, Eriochloa villosa; conditions: preemergence
Procedure, shortened: as §1

johnsongrass = assay: Test C pre-/postemergence herbicide test; format: in vivo, Sorghum halepense; conditions: preemergence
Procedure, shortened: as §1

kochia = assay: Test C pre-/postemergence herbicide test; format: in vivo, Kochia scoparia; conditions: preemergence
Procedure, shortened: as §1

lambsquarters = assay: Test C pre-/postemergence herbicide test; format: in vivo, Chenopodium album; conditions: preemergence
Procedure, shortened: as §1

rice = assay: Test C flooded paddy test; format: in vivo, Oryza sativa; conditions: for Plant response rating, Rice: 500 g ai/ha, visual rating after 12 to 14 days
Procedure, shortened: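 Plants were grown to the 1- to 4-leaf stage (2–18 cm) and then treated postemergence, or grown to the 2-leaf stage for the flooded paddy test. They were held in a greenhouse for 12 to 14 days and then scored by eye against controls, where 0 is no effect and 100 is complete control.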

ducksalad = assay: Test C flooded paddy test; format: in vivo, Heteranthera limosa; conditions: for Plant response rating, Ducksalad: 500 g ai/ha, visual rating after 12 to 14 days
[1] = 125 g ai/ha, scale 0 (no effect) to 100 (complete control), visual, 12 to 14 days
[2] = 500 g ai/ha, scale 0 to 100 (0 no effect, 100 complete control), visual, 12 to 14 days
[3] = 125 g ai/ha, scale 0 to 100 (0 no effect, 100 complete control)
[4] = 250 g ai/ha, scale of 0 to 100, 0 is no effect, 100 is complete control
[5] = scale 0 to 100 (0 no effect, 100 complete control)

SMILES | Plant response rating, Corn (corn; 62 g ai/ha, scale 0 to 100) | Plant response rating, Corn (corn; 250 g ai/ha, scale 0-100) | Plant response rating, Corn (corn; [2]) | Plant response rating, Crabgrass, Large (large crabgrass; 250 g ai/ha, scale 0-100) | Plant response rating, Crabgrass, Large (large crabgrass; [2]) | Plant response rating, Cupgrass, Woolly (woolly cupgrass; 62 g ai/ha, scale 0 to 100) | Plant response rating, Cupgrass, Woolly (woolly cupgrass; 250 g ai/ha, scale 0-100) | Plant response rating, Cupgrass, Woolly (woolly cupgrass; [2]) | Plant response rating, Johnsongrass (johnsongrass; 62 g ai/ha, scale 0 to 100) | Plant response rating, Johnsongrass (johnsongrass; 250 g ai/ha, scale 0-100) | Plant response rating, Johnsongrass (johnsongrass; [2]) | Plant response rating, Kochia (kochia; 62 g ai/ha, scale 0 to 100) | Plant response rating, Kochia (kochia; 250 g ai/ha, scale 0-100) | Plant response rating, Kochia (kochia; [2]) | Plant response rating, Lambsquarters (lambsquarters; 62 g ai/ha, scale 0 to 100) | Plant response rating, Lambsquarters (lambsquarters; 250 g ai/ha, scale 0-100) | Plant response rating, Lambsquarters (lambsquarters; [2]) | Rice plant response rating (rice; 62 g ai/ha, scale 0 to 100) | Rice plant response rating (rice; [3]) | Rice plant response rating (rice; [4]) | other results
CCN1N=C(C(C)(C)C)CC1C(=O)Nc1cc(C(=O)N2CCCC2)ccc1F (racemic) [Compound 309] | 5 | 40 | 60 | 100 | 100 | 40 | 90 | 100 | 75 | 95 | 100 | 100 | 100 | 100 | 100 | 100 | 100 | 60 | 70 | 75 | Plant response rating, Corn (corn; [1]): 20; Plant response rating, Crabgrass, Large (large crabgrass; [1]): 80; Plant response rating, Cupgrass, Woolly (woolly cupgrass; [1]): 70; Plant response rating, Johnsongrass (johnsongrass; [1]): 80; Plant response rating, Kochia (kochia; [1]): 100; Plant response rating, Lambsquarters (lambsquarters; [1]): 100; Plant response rating, Rice (rice; [5]): 75; Ducksalad plant response rating (ducksalad; 62 g ai/ha, scale 0 to 100): 85; Ducksalad plant response rating (ducksalad; [3]): 90; Ducksalad plant response rating (ducksalad; [4]): 90; Plant response rating, Ducksalad (ducksalad; [5]): 90
CCC1=NN(C(C)(C)C)CC1C(=O)Nc1cc(C(=O)N2CC=CC2)ccc1F (racemic) [Compound 340] | 5 | 45 | 50 | 100 | 100 | 0 | 45 | 75 | 15 | 50 | 90 | 10 | 90 | 100 | 70 | 100 | 100 | 20 | 40 | 70 | Plant response rating (0 = no effect, 100 = complete control), Corn (corn; 125 g ai/ha): 45; Plant response rating, Crabgrass, Large (large crabgrass; 62 g ai/ha, scale 0 to 100): 50; Plant response rating (0 = no effect, 100 = complete control), Crabgrass, Large (large crabgrass; 125 g ai/ha): 70; Plant response rating (0 = no effect, 100 = complete control), Cupgrass, Woolly (woolly cupgrass; 125 g ai/ha): 20; Plant response rating (0 = no effect, 100 = complete control), Johnsongrass (johnsongrass; 125 g ai/ha): 50; Plant response rating (0 = no effect, 100 = complete control), Kochia (kochia; 125 g ai/ha): 20; Plant response rating (0 = no effect, 100 = complete control), Lambsquarters (lambsquarters; 125 g ai/ha): 80; Plant response rating, Rice (rice; [5]): 80; Ducksalad plant response rating (ducksalad; 62 g ai/ha, scale 0 to 100): 50; Ducksalad plant response rating (ducksalad; [3]): 70; Ducksalad plant response rating (ducksalad; [4]): 70; Plant response rating, Ducksalad (ducksalad; [5]): 90

Source: patent publication US20060069132A1, “Azolecarboxamide herbicides” (priority 2004, published 2006)
